Results: the supplement of paper PMC10307832

Columns and labels:
Experiment in all cases: relative viability (nuclei count vs DMSO), 5 days (fraction); higher = more cells survive
A-427 = test system: A-427
In short: (§1)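 Five library-drug doses in √10 steps were combined with a fixed anchor-drug dose, or a single drug was given alone, by pin tool to lung cancer cell lines in 1536-well plates the day after seeding. Nuclei were stained and counted after 5 days. Relative viability is the nuclei count in treated wells over that in vehicle wells, taken as the median of duplicate plates.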

ABC-1 = test system: ABC-1
In short: as §1

COR-L23 = test system: COR-L23
In short: as §1

EMC-BAC-2 = test system: EMC-BAC-2
In short: as §1

HARA = test system: HARA
In short: as §1

HOP-62 = test system: HOP-62
In short: as §1

LK-2 = test system: LK-2
In short: as §1

LXF-289 = test system: LXF-289
In short: as §1

NCI-H1792 = test system: NCI-H1792
In short: as §1

NCI-H1793 = test system: NCI-H1793
In short: as §1

NCI-H1944 = test system: NCI-H1944
In short: as §1

NCI-H1993 = test system: NCI-H1993
In short: as §1

NCI-H2009 = test system: NCI-H2009
In short: as §1

NCI-H2170 = test system: NCI-H2170
In short: as §1

NCI-H2228 = test system: NCI-H2228
In short: as §1

NCI-H3122 = test system: NCI-H3122
In short: as §1

NCI-H596 = test system: NCI-H596
In short: as §1

NCI-H727 = test system: NCI-H727
In short: as §1

PC-3 [JPC-3] = test system: PC-3 [JPC-3]
In short: as §1

SK-LU-1 = test system: SK-LU-1
In short: as §1

SK-MES-1 = test system: SK-MES-1
In short: as §1

SW 1573 = test system: SW 1573
In short: as §1

SW 900 = test system: SW 900
In short: as §1

Question: Which results are given for NC(=O)Nc1cc(-c2cccc(F)c2)sc1C(=O)N[C@H]1CCCNC1 [AZD7762] + COc1cccc2cc(-c3nc([C@H]4CC[C@H](C(=O)O)CC4)n4ncnc(N)c34)[nH]c12 [OSI-027] (partner 0.5 µM)?
Answer: relative viability (A-427; first compound 0.01 µM): 0.484; relative viability (A-427; first compound 0.03162 µM): 0.498; relative viability (A-427; first compound 0.1 µM): 0.343; relative viability (A-427; first compound 0.3162 µM): 0.353; relative viability (A-427; first compound 1 µM): 0.224; relative viability (ABC-1; first compound 0.01 µM): 0.469; relative viability (ABC-1; first compound 0.03162 µM): 0.517; relative viability (ABC-1; first compound 0.1 µM): 0.414; relative viability (ABC-1; first compound 0.3162 µM): 0.349; relative viability (ABC-1; first compound 1 µM): 0.161; relative viability (COR-L23; first compound 0.01 µM): 0.866; relative viability (COR-L23; first compound 0.03162 µM): 0.866; relative viability (COR-L23; first compound 0.1 µM): 0.758; relative viability (COR-L23; first compound 0.3162 µM): 0.711; relative viability (COR-L23; first compound 1 µM): 0.285; relative viability (EMC-BAC-2; first compound 0.01 µM): 0.349; relative viability (EMC-BAC-2; first compound 0.03162 µM): 0.435; relative viability (EMC-BAC-2; first compound 0.1 µM): 0.465; relative viability (EMC-BAC-2; first compound 0.3162 µM): 0.345; relative viability (EMC-BAC-2; first compound 1 µM): 0.405; relative viability (HARA; first compound 0.01 µM): 0.506; relative viability (HARA; first compound 0.03162 µM): 0.609; relative viability (HARA; first compound 0.1 µM): 0.564; relative viability (HARA; first compound 0.3162 µM): 0.59; relative viability (HARA; first compound 1 µM): 0.16; relative viability (HOP-62; first compound 0.01 µM): 0.759; relative viability (HOP-62; first compound 0.03162 µM): 0.89; relative viability (HOP-62; first compound 0.1 µM): 0.743; relative viability (HOP-62; first compound 0.3162 µM): 0.71; relative viability (HOP-62; first compound 1 µM): 0.552; relative viability (LK-2; first compound 0.01 µM): 0.192; relative viability (LK-2; first compound 0.03162 µM): 0.228; relative viability (LK-2; first compound 0.1 µM): 0.213; relative viability (LK-2; first compound 0.3162 µM): 0.186; relative viability (LK-2; first compound 1 µM): 0.165; relative viability (LXF-289; first compound 0.01 µM): 0.61; relative viability (LXF-289; first compound 0.03162 µM): 0.835; relative viability (LXF-289; first compound 0.1 µM): 0.886; relative viability (LXF-289; first compound 0.3162 µM): 0.864; relative viability (LXF-289; first compound 1 µM): 0.971; relative viability (NCI-H1792; first compound 0.01 µM): 0.832; relative viability (NCI-H1792; first compound 0.03162 µM): 0.848; relative viability (NCI-H1792; first compound 0.1 µM): 0.811; relative viability (NCI-H1792; first compound 0.3162 µM): 0.867; relative viability (NCI-H1792; first compound 1 µM): 0.965; relative viability (NCI-H1793; first compound 0.01 µM): 0.265; relative viability (NCI-H1793; first compound 0.03162 µM): 0.268; relative viability (NCI-H1793; first compound 0.1 µM): 0.308; relative viability (NCI-H1793; first compound 0.3162 µM): 0.299; relative viability (NCI-H1793; first compound 1 µM): 0.25; relative viability (NCI-H1944; first compound 0.01 µM): 0.396; relative viability (NCI-H1944; first compound 0.03162 µM): 0.467; relative viability (NCI-H1944; first compound 0.1 µM): 0.53; relative viability (NCI-H1944; first compound 0.3162 µM): 0.525; relative viability (NCI-H1944; first compound 1 µM): 0.299; relative viability (NCI-H1993; first compound 0.01 µM): 0.577; relative viability (NCI-H1993; first compound 0.03162 µM): 0.591; relative viability (NCI-H1993; first compound 0.1 µM): 0.58; relative viability (NCI-H1993; first compound 0.3162 µM): 0.532; relative viability (NCI-H1993; first compound 1 µM): 0.525; relative viability (NCI-H2009; first compound 0.01 µM): 0.664; relative viability (NCI-H2009; first compound 0.03162 µM): 0.736; relative viability (NCI-H2009; first compound 0.1 µM): 0.73; relative viability (NCI-H2009; first compound 0.3162 µM): 0.601; relative viability (NCI-H2009; first compound 1 µM): 0.459; relative viability (NCI-H2170; first compound 0.01 µM): 0.637; relative viability (NCI-H2170; first compound 0.03162 µM): 0.734; relative viability (NCI-H2170; first compound 0.1 µM): 0.807; relative viability (NCI-H2170; first compound 0.3162 µM): 0.8; relative viability (NCI-H2170; first compound 1 µM): 0.707; relative viability (NCI-H2228; first compound 0.01 µM): 0.513; relative viability (NCI-H2228; first compound 0.03162 µM): 0.847; relative viability (NCI-H2228; first compound 0.1 µM): 0.492; relative viability (NCI-H2228; first compound 0.3162 µM): 0.302; relative viability (NCI-H2228; first compound 1 µM): 0.152; relative viability (NCI-H3122; first compound 0.01 µM): 1.03; relative viability (NCI-H3122; first compound 0.03162 µM): 1.1; relative viability (NCI-H3122; first compound 0.1 µM): 0.995; relative viability (NCI-H3122; first compound 0.3162 µM): 0.473; relative viability (NCI-H3122; first compound 1 µM): 0.259; relative viability (NCI-H596; first compound 0.01 µM): 0.702; relative viability (NCI-H596; first compound 0.03162 µM): 0.711; relative viability (NCI-H596; first compound 0.1 µM): 0.849; relative viability (NCI-H596; first compound 0.3162 µM): 0.673; relative viability (NCI-H596; first compound 1 µM): 0.686; relative viability (NCI-H727; first compound 0.01 µM): 0.649; relative viability (NCI-H727; first compound 0.03162 µM): 0.791; relative viability (NCI-H727; first compound 0.1 µM): 0.425; relative viability (NCI-H727; first compound 0.3162 µM): 0.52; relative viability (NCI-H727; first compound 1 µM): 0.358; relative viability (PC-3 [JPC-3]; first compound 0.01 µM): 0.714; relative viability (PC-3 [JPC-3]; first compound 0.03162 µM): 0.832; relative viability (PC-3 [JPC-3]; first compound 0.1 µM): 0.858; relative viability (PC-3 [JPC-3]; first compound 0.3162 µM): 0.751; relative viability (PC-3 [JPC-3]; first compound 1 µM): 0.684; relative viability (SK-LU-1; first compound 0.01 µM): 0.35; relative viability (SK-LU-1; first compound 0.03162 µM): 0.384; relative viability (SK-LU-1; first compound 0.1 µM): 0.203; relative viability (SK-LU-1; first compound 0.3162 µM): 0.136; relative viability (SK-LU-1; first compound 1 µM): 0.157; relative viability (SK-MES-1; first compound 0.01 µM): 0.672; relative viability (SK-MES-1; first compound 0.03162 µM): 0.571; relative viability (SK-MES-1; first compound 0.1 µM): 0.52; relative viability (SK-MES-1; first compound 0.3162 µM): 0.173; relative viability (SK-MES-1; first compound 1 µM): 0.17; relative viability (SW 1573; first compound 0.01 µM): 0.69; relative viability (SW 1573; first compound 0.03162 µM): 0.65; relative viability (SW 1573; first compound 0.1 µM): 0.742; relative viability (SW 1573; first compound 0.3162 µM): 0.422; relative viability (SW 1573; first compound 1 µM): 0.176; relative viability (SW 900; first compound 0.01 µM): 0.609; relative viability (SW 900; first compound 0.03162 µM): 0.623; relative viability (SW 900; first compound 0.1 µM): 0.539; relative viability (SW 900; first compound 0.3162 µM): 0.501; relative viability (SW 900; first compound 1 µM): 0.263
